Data: paper PMC11350868, “A Novel Bacitracin-like Peptide from Mangrove-Isolated Bacillus paralicheniformis NNS4-3 against MRSA and Its Genomic Insights” (Antibiotics, 2024)
Values after ≈ are worked out from the molar mass of the structure shown. Where two headings read alike, the source gives them in different places. Non-standard residues stand in square brackets, D forms with d. No end group written: not given here. Orn = NCCC[C@H](N)C(=O)O

Key:
[1] = tested on: Bacillus paralicheniformis NNS4-3; assay: Antibiotic susceptibility test of NNS4-3 (disc diffusion); assay type: cell-based; details: disc diffusion on MH agar, 30 °C, 24 h, triplicate; result in words (Figure S1)
Method: The susceptibility of NNS4-3 to the standard antibiotics was studied by a disc diffusion assay. The isolate was inoculated at 30 °C with shaking at 150 rpm for 24 h in ZM broth. The culture was adjusted to 0.1 OD at 625 nm before being spread onto the MH agar. The antibiotic discs (Oxoid Ltd., Hampshire, UK) of ciprofloxacin (5 µg), piperacillin (100 µg) combined with tazobactam (10 µg), imipenem (10 µg), ceftriaxone (30 µg), cefoxitin (30 µg), doxycycline (30 µg), vancomycin (30 µg), erythromycin (15 µg), and gentamicin (10 µg) were placed on the culture-seeded agar and then incubated at 30 °C for 24 h. The susceptibility tests were conducted in triplicate. The inhibition zones were presented as mean ± SD.

S. aureus TISTR 517 [2] = assay: Agar well diffusion assay; assay type: cell-based, Staphylococcus aureus; details: 100 µL CFS of 3-day culture in 9 mm wells, controls 30 µg, MH agar, 37 °C, 18 h, mean ± SD, n = 3
Method: (§1) The active isolates from the agar overlay assay were inoculated in broth. The types of broth media were the same as those used during the initial isolation. The liquid cultures were incubated at 30 °C with shaking at 150 rpm for 18 h. The optical density of the starter culture was adjusted to a turbidity of 0.1 OD at 625 nm with 0.85% sterile NaCl solution before transferring 1 mL of the culture into 49 mL of fresh broth. The inoculum was then incubated at 30 °C and 150 rpm for 3 days. The cell-free supernatant (CFS) was collected by centrifugation at 10,000× g at 4 °C for 15 min and filtered using a 0.2 µm sterile cellulose acetate syringe filter (Sigma-Aldrich, Warren, MI, USA). The antibacterial activity of the isolates was studied using S. aureus TISTR 517, obtained from the Thailand Institute of Scientific and Technological Research (TISTR), Thailand. The three strains of MRSA (strains 142, 1096, and 2468) were kindly provided by the medical technology laboratory of the School of Allied Health Sciences, Walailak University, Thailand. The pathogenic bacteria were incubated at 37 °C for 18 h on MH agar. The microbial indicators were prepared to a turbidity equivalent to 0.1 OD at 625 nm before being spread on MH agar. The CFS of 100 µL was aseptically transferred to 9 mm diameter wells, followed by an incubation period at 37 °C for 18 h. Cefoxitin (30 µg) and vancomycin (30 µg) (Sigma-Aldrich Co., St. Louis, MO, USA) were employed as positive controls. The experiment was conducted in triplicate and the mean ± SD of the diameters of the inhibition zones was measured.
(§2) The sample was incubated at 30 °C with shaking at 150 rpm for 7 days. The OD at 625 nm of the inoculum was measured and the CFS was collected at 0, 4, 8, 12, 16, 20, and 24 h on the first day of incubation and then once a day until the seventh day of incubation. The bacterial growth was observed by measuring OD at 625 nm and the collected CFS at all time points was evaluated for antibacterial activity using the agar well diffusion assay against S. aureus TISTR 517 and three strains of MRSA. The experiment was performed in triplicate. […] The kinetics of the antimicrobial compounds’ production curve with mean ± SD were presented.

MRSA strain 142 [3] = assay: Agar well diffusion assay; assay type: cell-based, Staphylococcus aureus; details: 100 µL CFS of 3-day culture in 9 mm wells, controls 30 µg, MH agar, 37 °C, 18 h, mean ± SD, n = 3
Method: as §1, §2

MRSA strain 2468 [4] = assay: Agar well diffusion assay; assay type: cell-based, Staphylococcus aureus; details: 100 µL CFS of 3-day culture in 9 mm wells, controls 30 µg, MH agar, 37 °C, 18 h, mean ± SD, n = 3
Method: as §1, §2

MRSA strain 1096 [5] = assay: Agar well diffusion assay; assay type: cell-based, Staphylococcus aureus; details: 100 µL CFS of 3-day culture in 9 mm wells, controls 30 µg, MH agar, 37 °C, 18 h, mean ± SD, n = 3
Method: as §1, §2

S. aureus TISTR 517 [6] = assay: microbe, parasite or virus in culture; assay type: cell-based, Staphylococcus aureus; details: Staphylococcus aureus
Method: (§3) The MIC and MBC of the purified peptide of NNS4-3 were determined against various strains of S. aureus. The broth microdilution method followed the guidance provided by the Clinical and Laboratory Standards Institute (CLSI). Pathogenic bacteria, such as S. aureus TISTR 517 and MRSA strains 142, 1096, and 2468, were used as test strains and cultured on MH agar at 37 °C for 18 h. A single colony of each tested bacterium was suspended in 0.85% NaCl until its turbidity reached an OD of 0.1 at 625 nm (1 × 10^8 CFU/mL). The bacterial cells were diluted to 5 × 10^6 CFU/mL using cation-adjusted Mueller Hinton broth (CAMHB). The diluted cell suspension (10 µL) was transferred to each well of a 96-well plate. With a total volume of 100 µL in each well, the purified AMP was added to each well to obtain final concentrations between 0.125 and 64 µg/mL. Standard antibiotics (vancomycin and cefoxitin) and antibiotic-free samples were used as positive and negative controls, respectively. The 96-well plate was incubated at 37 °C for 24 h. The experiment was carried out in triplicate for each strain. […] Subsequently, 100 µL of each dilution was spread on MH agar and then incubated at 37 °C for 24 h. The MBC was identified as the lowest concentration at which no bacterial colony growth was observed on the plate.

MRSA strain 142 [7] = assay: microbe, parasite or virus in culture; assay type: cell-based, Staphylococcus aureus; details: Staphylococcus aureus, MRSA, 24 h
Method: as §3

MRSA strain 2468 [8] = assay: microbe, parasite or virus in culture; assay type: cell-based, Staphylococcus aureus; details: Staphylococcus aureus, MRSA, 24 h
Method: as §3

MRSA strain 1096 [9] = assay: microbe, parasite or virus in culture; assay type: cell-based, Staphylococcus aureus; details: Staphylococcus aureus, MRSA, 24 h
Method: as §3

S. aureus TISTR 517 [10] = assay: SEM of treated cells (morphological changes); assay type: cell-based, Staphylococcus aureus; details: 1× MIC, 18 h incubation, 20,000× magnification
Method: (§4) The treatment effect of NNS4-3 AMP on tested bacterial cells was investigated by observing morphological changes under SEM. S. aureus TISTR 517 and MRSA strain 2468 were precultured in MH broth for 18 h before being centrifuged to harvest the cell pellet. Cell pellets of both strains were washed with 0.85% sterile NaCl solution 3 times to remove exopolysaccharide. The washed cells were then dispersed in CAMHB to adjust cell turbidity to 0.1 OD at 625 nm. The prepared cells were diluted to 5 × 10^5 CFU/mL with CAMHB before being treated with NNS4-3 AMP. […] The sample for SEM micrography was prepared by fixing the bacterial sample in 2.5% glutaraldehyde in 0.1 M phosphate buffer pH 7.2 for 24 h before ethanol dehydration of the sample. The complete ethanol removal from the prepared sample was conducted by a critical point drying machine (Quorum Technologies Ltd., Lewes, East Sussex, UK).

MRSA strain 2468 [11] = assay: SEM of treated cells (morphological changes); assay type: cell-based, Staphylococcus aureus; details: 1× MIC, 18 h incubation, 20,000× magnification
Method: as §4

[12] = bacitracin from Bacillus paralicheniformis UBBLi30, ref [42], cited from earlier work
MRSA strain MW2 = details: ref [41]; cited from earlier work
MSSA strain RN4420 = details: ref [41]; cited from earlier work
From the text: The literature search could support the observed difference in MIC between MSSA and MRSA strains.

[13] = broth microdilution, CAMHB, 37 °C, 0.125-64 µg/mL, triplicate, read-out: MIC

## C[C@H]1c2cccc(O)c2C(=O)C2=C(O)[C@]3(O)C(=O)C(C(N)=O)=C(O)[C@@H](N(C)C)[C@@H]3[C@@H](O)[C@@H]21 [doxycycline]
[1]
  antibiotic susceptibility of the NNS4-3 isolate: moderate to high susceptibility

## CN[C@H](CC(C)C)C(=O)N[C@H]1C(=O)N[C@@H](CC(N)=O)C(=O)N[C@H]2C(=O)N[C@H]3C(=O)N[C@H](C(=O)N[C@H](C(=O)O)c4cc(O)cc(O)c4-c4cc3ccc4O)[C@H](O)c3ccc(c(Cl)c3)Oc3cc2cc(c3O[C@@H]2O[C@H](CO)[C@@H](O)[C@H](O)[C@H]2O[C@H]2C[C@](C)(N)[C@H](O)[C@H](C)O2)Oc2ccc(cc2Cl)[C@H]1O [Vancomycin]
S. aureus TISTR 517 [2]
  Zone of Inhibition: 23.37 ± 1.27 mm
MRSA strain 142 [3]
  Zone of Inhibition: 24.13 ± 1.27 mm
MRSA strain 2468 [4]
  Zone of Inhibition: 24.64 ± 1.02 mm
MRSA strain 1096 [5]
  Zone of Inhibition: 24.38 ± 0.51 mm
S. aureus TISTR 517 [6]; TISTR517, 24 h
  MBC: 2 µg/mL (≈ 1.38 µM)
  MIC: 2 µg/mL (≈ 1.38 µM)
MRSA strain 142 [7]
  MBC: 2 µg/mL (≈ 1.38 µM)
  MIC: 2 µg/mL (≈ 1.38 µM)
MRSA strain 2468 [8]
  MBC: 2 µg/mL (≈ 1.38 µM)
  MIC: 2 µg/mL (≈ 1.38 µM)
MRSA strain 1096 [9]
  MBC: 2 µg/mL (≈ 1.38 µM)
  MIC: 2 µg/mL (≈ 1.38 µM)
[1]
  antibiotic susceptibility of the NNS4-3 isolate: moderate to high susceptibility
S. aureus TISTR 517 [10]
  morphological changes under SEM: cellular lysis
MRSA strain 2468 [11]
  morphological changes under SEM: irregular shape

## LCLEIK[Orn]IFHDN [bacitracin, AMP constructed by non-ribosomal peptide synthesis; literature values]
[12]; autoclaving for 15 min
  activity after autoclaving: 80%
[12]; pH 14, 1 h
  activity at pH 14: lost
MRSA strain MW2
  MIC: 32 µg/mL
MSSA strain RN4420
  MIC: 64 µg/mL

## O=C(O)c1cn(C2CC2)c2cc(N3CCNCC3)c(F)cc2c1=O [ciprofloxacin]
[1]
  antibiotic susceptibility of the NNS4-3 isolate: high potency inhibition

## CNC(C)C1CCC(N)C(OC2C(N)CC(N)C(OC3OCC(C)(O)C(NC)C3O)C2O)O1 (stereo not shown) [gentamicin]
[1]
  antibiotic susceptibility of the NNS4-3 isolate: moderate to high susceptibility

## CC[C@H]1OC(=O)[C@H](C)[C@@H](O[C@H]2C[C@@](C)(OC)[C@@H](O)[C@H](C)O2)[C@H](C)[C@@H](O[C@@H]2O[C@H](C)C[C@H](N(C)C)[C@H]2O)[C@](C)(O)C[C@@H](C)C(=O)[C@H](C)[C@@H](O)[C@]1(C)O [erythromycin]
[1]
  antibiotic susceptibility of the NNS4-3 isolate: highest susceptibility

## CO/N=C(\C(=O)N[C@@H]1C(=O)N2C(C(=O)O)=C(CSc3nc(=O)c(=O)[nH]n3C)CS[C@H]12)c1csc(N)n1 [ceftriaxone]
[1]
  antibiotic susceptibility of the NNS4-3 isolate: tolerated

## C[C@@H](O)[C@H]1C(=O)N2C(C(=O)O)=C(SCCN=CN)C[C@H]12 [imipenem]
[1]
  antibiotic susceptibility of the NNS4-3 isolate: high potency inhibition

## CO[C@@]1(NC(=O)Cc2cccs2)C(=O)N2C(C(=O)O)=C(COC(N)=O)CS[C@@H]21 [Cefoxitin]
S. aureus TISTR 517 [2]
  Zone of Inhibition: 35.87 ± 0.46 mm
MRSA strain 142 [3]
  Zone of Inhibition: 0.00 ± 0.00 mm
MRSA strain 2468 [4]
  Zone of Inhibition: 0.00 ± 0.00 mm
MRSA strain 1096 [5]
  Zone of Inhibition: 0.00 ± 0.00 mm
S. aureus TISTR 517 [6]; TISTR517, broth microdilution, CAMHB, 37 °C, 24 h, 0.125-64 µg/mL, triplicate, read-out: MIC
  MIC: 2 µg/mL (≈ 4.68 µM)
S. aureus TISTR 517 [6]; TISTR517, plated on MH agar after MIC, 37 °C, 24 h, triplicate, read-out: MBC
  MBC: 2 µg/mL (≈ 4.68 µM)
MRSA strain 142 [7]; [13]
  MIC: > 64 µg/mL
MRSA strain 2468 [8]; [13]
  MIC: > 64 µg/mL
MRSA strain 1096 [9]; [13]
  MIC: > 64 µg/mL
[1]
  antibiotic susceptibility of the NNS4-3 isolate: moderate to high susceptibility
S. aureus TISTR 517 [10]
  morphological changes under SEM: cellular lysis
MRSA strain 2468 [11]
  morphological changes under SEM: good tolerance
